The source made the active and inactive calls. No cut-off for these calls is given here.

Assay [1] deals with NB-4. Kind of assay: Cell cycle arrest in human NB4 cells assessed as accumulation of cells at G2/M phase at 2 uM incubated for 12 hrs by DAPI staining based flow cytometric analysis (reference value: 21 %). It counts as functional.
Assay [2] has as its system NB-4. Kind of assay: Cell cycle arrest in human NB4 cells transfected with pLVX-shPML-RARalpha plasmid assessed as accumulation of cells at G2/M phase at 1 uM incubated for 12 hrs by DAPI staining based flow cytometric analysis (reference value: 22 %). The class given is functional. Background: Flow cytometry measures light scatter and fluorescence of single cells or particles in a stream.

Assay [3] has as its system NB-4. Kind of assay: Cell cycle arrest in human NB4 cells assessed as accumulation of cells at G0/G1 phase at 2 uM incubated for 6 hrs by DAPI staining based flow cytometric analysis (reference value: 56 %). It counts as functional.
In assay [4] the test system is ATRA-resistant NB4-LR2. Put plainly: Cell cycle arrest in human ATRA-resistant NB4-LR2 cells transfected with pLVX-shRXRalpha assessed as increase in PLK1 expression at 1 uM incubated for 12 hrs by Western blot analysis. The class given is functional, cell-based. (In general: In western blotting, separated proteins are transferred to a membrane and probed.)
Assay [5] has as its system NB-4. Put plainly: Cell cycle arrest in human NB4 cells transfected with pLVX-shPML-RARalpha plasmid assessed as accumulation of cells at G0/G1 phase at 2 uM incubated for 12 hrs by DAPI staining based flow cytometric analysis (reference value: 38 %). It counts as functional.
Assay [6] can be described thus: Cell cycle arrest in human ATRA-resistant NB4-LR2 cells assessed as accumulation of cells at G2/M phase at 2 uM incubated for 24 hrs by DAPI staining based flow cytometric analysis (reference value: 25 %). The class given is functional.
For assay [7], the system named is NB-4. Kind of assay: Cell cycle arrest in human NB4 cells transfected with pLVX-shRXRalpha plasmid assessed as accumulation of cells at S phase at 2 uM incubated for 12 hrs by DAPI staining based flow cytometric analysis (reference value: 19 %). It counts as functional.
Assay [8] is described as follows: Cell cycle arrest in human ATRA-resistant NB4-LR2 cells assessed as accumulation of cells at S phase at 2 uM incubated for 24 hrs by DAPI staining based flow cytometric analysis (reference value: 21 %). The class given is functional.
Assay [9] is described as follows: Cell cycle arrest in human ATRA-resistant NB4-LR2 cells assessed as accumulation of cells at sub-G1 phase at 1 uM incubated for 24 hrs by DAPI staining based flow cytometric analysis (reference value: 12 %). The class given is functional.
Assay [10] is described as follows: Cell cycle arrest in human ATRA-resistant NB4-LR2 cells assessed as accumulation of cells at sub-G1 phase at 2 uM incubated for 6 hrs by DAPI staining based flow cytometric analysis (reference value: 9 %). It counts as functional.
For assay [11], the system named is NB-4. Put plainly: Cell cycle arrest in human NB4 cells assessed as accumulation of cells at G2/M phase at 1 uM incubated for 24 hrs by DAPI staining based flow cytometric analysis (reference value: 23 %). It counts as functional.
Assay [12] relates to NB-4. Put plainly: Cell cycle arrest in human NB4 cells assessed as accumulation of cells at S phase at 1 uM incubated for 12 hrs by DAPI staining based flow cytometric analysis (reference value: 20 %). The class given is functional.
In assay [13] the test system is NB-4. Put plainly: Cell cycle arrest in human NB4 cells transfected with pLVX-shRXRalpha plasmid assessed as accumulation of cells at G2/M phase at 2 uM incubated for 12 hrs by DAPI staining based flow cytometric analysis (reference value: 17 %). The class given is functional.
Assay [14] relates to NB-4. Put plainly: Induction of apoptosis in human NB4 cells assessed as early apoptotic cells at 1 uM incubated for 24 hrs by Annexin V-FITC/PI staining based flow cytometric analysis (reference value: 1.77 %). The class given is functional.
Assay [15] has as its system NB-4. Put plainly: Cell cycle arrest in human NB4 cells transfected with pLVX-shRNA2-negative control assessed as accumulation of cells at S phase at 2 uM incubated for 12 hrs by DAPI staining based flow cytometric analysis (reference value: 26 %). It counts as functional.
Assay [16] deals with NB-4. Put plainly: Cell cycle arrest in human NB4 cells transfected with pLVX-shRNA2-negative control assessed as accumulation of cells at sub-G1 phase at 1 uM incubated for 12 hrs by DAPI staining based flow cytometric analysis (reference value: 4 %). It counts as functional.
For assay [17], the system named is ATRA-resistant NB4-LR2. Kind of assay: Cell cycle arrest in human ATRA-resistant NB4-LR2 cells assessed as accumulation of cells at G2/M phase at 2 uM incubated for 3 to 12 hrs by DAPI staining based flow cytometric analysis. The class given is functional. The note with it: time 3-12 hrs.
Assay [18] deals with NB-4. Kind of assay: Cell cycle arrest in human NB4 cells assessed as accumulation of cells at G2/M phase at higher concentration by DAPI staining based flow cytometric analysis. It counts as functional.

Turning to `Cc1cc2c(cc1C(=O)/C(Br)=C/c1ccc(C(=O)O)cc1)C(C)(C)CCC2(C)C`, the Activity is 62% in the assay with NB-4 [1]; 27% in the assay with NB-4 [2]; 30% in the assay with NB-4 [3]; 31% with NB-4 [5]; 23% in assay [6]; 22% with NB-4 [7]. Further, the Activity in [8] amounted to 22%; in [9], 20%; in assay [10], 22%; with NB-4 [11], 45%; with NB-4 [12], 13%; in the assay with NB-4 [13], 26%. For the same compound, the Activity in the assay with NB-4 [14] was determined as 19.18%; in the assay on NB-4 [15], 18%; in the assay with NB-4 [16], 7%. The result in the assay with ATRA-resistant NB4-LR2 [4] was inactive.
Consider `Cc1cc2c(cc1C(=O)/C(Br)=C\c1ccc(C(=O)O)cc1)C(C)(C)CCC2(C)C`, for which the result in the assay with ATRA-resistant NB4-LR2 [17] and in the assay on NB-4 [18] was Active.

Source of the values: ChEMBL document CHEMBL6134780, “Halogenated retinoid derivatives as dual RARα and RXRα modulators for treating acute promyelocytic leukemia cells” (Eur J Med Chem, 2024).
